IC50 and pKa data for 20 compounds are collected here from ChEMBL document CHEMBL1147163 (Bioorg Med Chem, 2007).

Series [1] in a line: Inhibition of rat microsomal VKER.
Series [2] in a line: Dissociation constant, pKa of the compound. It is filed as physicochemical.

Some results are limits rather than exact numbers.

Regarding `CC(=O)CC(C1=C(O)c2ccccc2C1=O)c1ccccc1` (stereo unspecified), half-maximal inhibition in series [1] (IC50) required 3 µM.
The same measure, in the same setting: with `O=c1oc2ccccc2c(O)c1C1CC(c2ccc(-c3ccc(Br)cc3)cc2)Cc2ccccc21` (stereo unspecified) [BRODIFACOUM] the figure was 0.15 µM; with `O=c1oc2ccccc2c(O)c1Cc1c(O)c2ccccc2oc1=O` [DICUMAROL], 3.1 µM; with `CCC(c1ccccc1)c1c(O)c2ccccc2oc1=O` (stereo unspecified) [PHENPROCOUMON], 1.8 µM.
The compound `CC(=O)CC(c1ccccc1)c1c(S)c2ccccc2oc1=O` (stereo unspecified) registered a concentration for half-maximal inhibition (IC50) in series [1] of 18.3 µM. In addition, in series [2], the pKa was found to be 6.6.
In series [1], `CC(C)=CCc1c(O)c2ccccc2oc1=O` [ISOPRENYLCOUMARIN] yielded a concentration for half-maximal inhibition (IC50) of 79 µM.
As to `CC(=O)CC(c1ccccc1)c1c(OS(=O)(=O)C(F)(F)F)c2ccc(O)cc2oc1=O` (stereo unspecified) [WARFARIN TRIFLATE], the IC50 in series [1] is more than 500 µM.
Take `CC(=O)CC(c1ccccc1)c1c(SC[C@@H](NC(C)=O)C(=O)O)c2ccccc2oc1=O` (stereo partly specified): the concentration for half-maximal inhibition (IC50) in series [1] is more than 500 µM.
`CC(=O)CC(c1ccccc1)c1c(Cl)c2ccccc2oc1=O` (stereo unspecified) had a half-inhibitory concentration (IC50) in series [1] of more than 500 µM.
The same measure, in the same setting: with `CC(=O)CC(c1ccc([N+](=O)[O-])cc1)c1c(O)c2ccccc2oc1=O` (stereo unspecified) [ACENOCOUMAROL] the figure was 0.77 µM; with `CC(=O)CC(c1ccccc1)c1c(O)c2ccccc2oc1=O` (stereo unspecified) [WARFARIN], 2.2 µM; with `CC(C)=CCC/C(C)=C/CC/C(C)=C/Cc1c(O)c2cc(C)c(C)cc2oc1=O` [DIMETHYLFERULENOL], 0.34 µM.
The same measure, in the same setting: with `CC(O)CC(c1ccccc1)c1c(O)c2ccccc2oc1=O` (stereo unspecified) [WARFARIN ALCOHOL] the figure was 12.5 µM; with `CC(=O)CC(c1ccccc1)c1c(O)oc2cc(O)ccc2c1=O` (stereo unspecified), 250 µM; with `COc1c(C(CC(C)=O)c2ccccc2)c(=O)oc2ccccc12` (stereo unspecified), more than 500 µM.
The same measure, in the same setting: with `CCCCCCCC/C=C\CCCCCCCCc1c(O)c2ccccc2oc1=O` the figure was 0.9 µM.
In turn, `CC(=O)CC(c1ccccc1)c1c(O)oc2ccc(O)cc2c1=O` (stereo unspecified) yielded a 50% inhibitory concentration (IC50) in series [1] of 12.8 µM.
On the same count and under the same terms, with `CC(C)=CCC/C(C)=C/CC/C(C)=C/Cc1c(O)c2ccccc2oc1=O` the figure was 0.098 µM; with `CC(=O)CC(c1ccccc1)c1cc2ccccc2oc1=O` (stereo unspecified), more than 500 µM; with `CC(C)=CCC/C(C)=C/CC/C(C)=C/CC1=C(O)c2ccccc2C(=O)C1=O`, 0.13 µM.

For orientation: IC50 means the concentration that gives 50% inhibition. A higher IC50 goes with lower potency. Usually pKa stands for the pH at which an ionisable group is half protonated.
